# Values joined by “and” are separate entries in the source; they are usually repeats but may differ in a detail not shown here. Equal values may be shown once. Records with an inconclusive call do not appear.
# Tested on: BDF1 mice, colon carcinoma 38 sc, T/C %
# Assay: NCI In Vivo Anticancer Drug Screen. Data for tumor model Colon Carcinoma 38 (subcutaneous) in B6D2F1 (BDF1) mice
# Details: endpoint: median tumor weight (est.), higher = larger tumour
# How it was run: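 Compound antitumor activity was assessed in mice carrying transplantable tumors. Survival or tumor size was recorded, and each value is the treated-group measurement divided by that of the vehicle-treated control group.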
# [1] = dose: 12.5 mg/kg/injection, schedule: Q07DX002 (ip), vehicle: Klucel (hydroxypropylcellulose) (HPC)
# [2] = dose: 25.0 mg/kg/injection, schedule: Q07DX002 (ip), vehicle: Klucel (hydroxypropylcellulose) (HPC)
# [3] = dose: 50.0 mg/kg/injection, schedule: Q07DX002 (ip), vehicle: Klucel (hydroxypropylcellulose) (HPC)
# [4] = dose: 100.0 mg/kg/injection, schedule: Q07DX002 (ip), vehicle: Klucel (hydroxypropylcellulose) (HPC)
# [5] = dose: 200.0 mg/kg/injection, schedule: Q07DX002 (ip), vehicle: Klucel (hydroxypropylcellulose) (HPC)
# [6] = dose: 12.5 mg/kg/injection, schedule: Q07DX002 (ip), vehicle: saline with Tween-80
# [7] = dose: 25.0 mg/kg/injection, schedule: Q07DX002 (ip), vehicle: saline with Tween-80
# [8] = dose: 25.0 mg/kg/injection, schedule: Q07DX002 (ip), vehicle: saline
# [9] = dose: 100.0 mg/kg/injection, schedule: Q07DX002 (ip), vehicle: saline
# [10] = dose: 200.0 mg/kg/injection, schedule: Q07DX002 (ip), vehicle: saline
# [11] = dose: 400.0 mg/kg/injection, schedule: Q07DX002 (ip), vehicle: saline
# [12] = dose: 12.5 mg/kg/injection, schedule: Q07DX002 (ip), vehicle: saline
structure (smiles),measurement,setting,value
C=CCNc1ccc(C)cc1,T/C,[1],72 % of control
same,T/C,[2],92 % of control
same,T/C,[3],66 % of control
same,T/C,[4],86 % of control
same,T/C,[5],78 % of control
CN1C(=O)C(=Cc2ccc(O)cc2)C(=O)N(C)C1=O,T/C,[6],105 % of control
same,T/C,[7],53 % of control
CN(C)c1nc(N(C)C)nc(N(C)C)n1,T/C,"dose: 12.5 mg/kg/injection, schedule: Q07DX003 (ip), vehicle: saline with Tween-80",68 % of control
same,T/C,"dose: 25.0 mg/kg/injection, schedule: Q07DX003 (ip), vehicle: saline with Tween-80",91 % of control
same,T/C,"dose: 50.0 mg/kg/injection, schedule: Q07DX003 (ip), vehicle: saline with Tween-80",112 % of control
same,T/C,"dose: 100.0 mg/kg/injection, schedule: Q07DX003 (ip), vehicle: saline with Tween-80",66 % of control
same,T/C,"dose: 200.0 mg/kg/injection, schedule: Q07DX003 (ip), vehicle: saline with Tween-80",65 % of control
O=C1N(CC2CO2)CCN1CC1CO1 (configuration not stated),T/C,[8],39 % of control
same,T/C,"dose: 50.0 mg/kg/injection, schedule: Q07DX002 (ip), vehicle: saline",26 % of control
same,T/C,[9],41 % of control
same,T/C,[10],41 % of control
same,T/C,[11],29 % of control
CC[n+]1c(-c2ccccc2)c2cc(N)ccc2c2ccc(N)cc21,T/C,"dose: 2.5 mg/kg/injection, schedule: Q07DX002 (ip), vehicle: saline",99 % of control
same,T/C,"dose: 20.0 mg/kg/injection, schedule: Q07DX002 (ip), vehicle: saline",118 % of control and 103 % of control
Nc1nc(=S)c2[nH]cnc2[nH]1,T/C,"dose: 1.56 mg/kg/injection, schedule: Q07DX002 (ip), vehicle: alkali diluted with saline",105 % of control
same,T/C,"dose: 2.0 mg/kg/injection, schedule: Q07DX002 (ip), vehicle: alkali diluted with saline",63 % of control
same,T/C,"dose: 2.0 mg/kg/injection, schedule: Q07DX003 (ip), vehicle: alkali diluted with saline",37 % of control and 46 % of control (2×)
same,T/C,"dose: 2.0 mg/kg/injection, schedule: Q07DX003 (ip), vehicle: saline",52 % of control and 61 % of control
same,T/C,"dose: 3.13 mg/kg/injection, schedule: Q07DX002 (ip), vehicle: alkali diluted with saline",32 % of control
same,T/C,"dose: 4.0 mg/kg/injection, schedule: Q07DX002 (ip), vehicle: alkali diluted with saline",44 % of control
same,T/C,"dose: 4.0 mg/kg/injection, schedule: Q07DX002 (ip), vehicle: saline",54 % of control and 78 % of control
same,T/C,"dose: 4.0 mg/kg/injection, schedule: Q07DX003 (ip), vehicle: saline",27 % of control and 42 % of control
same,T/C,"dose: 6.25 mg/kg/injection, schedule: Q07DX002 (ip), vehicle: alkali diluted with saline",29 % of control
same,T/C,"dose: 8.0 mg/kg/injection, schedule: Q07DX002 (ip), vehicle: alkali diluted with saline",21 % of control
same,T/C,"dose: 8.0 mg/kg/injection, schedule: Q07DX002 (ip), vehicle: saline",26 % of control and 31 % of control
same,T/C,"dose: 8.0 mg/kg/injection, schedule: Q07DX003 (ip), vehicle: alkali diluted with saline",8 % of control and 11 % of control and 18 % of control
same,T/C,"dose: 8.0 mg/kg/injection, schedule: Q07DX003 (ip), vehicle: saline",13 % of control and 37 % of control
same,T/C,"dose: 12.5 mg/kg/injection, schedule: Q07DX002 (ip), vehicle: alkali diluted with saline",9 % of control
same,T/C,"dose: 16.0 mg/kg/injection, schedule: Q07DX002 (ip), vehicle: alkali diluted with saline",20 % of control
same,T/C,"dose: 16.0 mg/kg/injection, schedule: Q07DX002 (ip), vehicle: saline",17 % of control and 24 % of control
same,T/C,"dose: 16.0 mg/kg/injection, schedule: Q07DX003 (ip), vehicle: alkali diluted with saline",2 % of control and 8 % of control
same,T/C,"dose: 16.0 mg/kg/injection, schedule: Q07DX003 (ip), vehicle: saline",4 % of control and 15 % of control
same,T/C,"dose: 25.0 mg/kg/injection, schedule: Q07DX002 (ip), vehicle: alkali diluted with saline",18 % of control
same,T/C,"dose: 32.0 mg/kg/injection, schedule: Q07DX002 (ip), vehicle: alkali diluted with saline",14 % of control
same,T/C,"dose: 32.0 mg/kg/injection, schedule: Q07DX003 (ip), vehicle: alkali diluted with saline",2 % of control
same,T/C,"dose: 32.0 mg/kg/injection, schedule: Q07DX003 (ip), vehicle: saline",9 % of control
same,T/C,"dose: 50.0 mg/kg/injection, schedule: Q07DX002 (ip), vehicle: alkali diluted with saline",16 % of control
COc1cccc2c1C(=O)c1c(O)c3c(c(O)c1C2=O)CC(O)(/C(C)=N/NC(=O)CCCCC(=O)N/N=C(\C)C1(O)Cc2c(O)c4c(c(O)c2C(OC2CC(N)C(O)C(C)O2)C1)C(=O)c1c(OC)cccc1C4=O)CC3OC1CC(N)C(O)C(C)O1 (configuration not stated),T/C,"dose: 6.25 mg/kg/injection, schedule: Q07DX002 (ip), vehicle: saline",46 % of control
same,T/C,"dose: 6.25 mg/kg/injection, schedule: Q07DX002 (ip), vehicle: water",68 % of control
same,T/C,[12],32 % of control
same,T/C,"dose: 12.5 mg/kg/injection, schedule: Q07DX002 (ip), vehicle: water",21 % of control
Nc1cc2[nH]cnc2c(=O)[nH]1,T/C,[12],66 % of control
same,T/C,[8],168 % of control
same,T/C,[9],113 % of control
same,T/C,[10],99 % of control
same,T/C,[11],117 % of control
CCC1CCCCN1C(=S)N/N=C(\C)c1ccccn1 (configuration not stated),T/C,[7],121 % of control
CC(=O)OCC12CCC(C)=CC1OC1C(OS(C)(=O)=O)C(=O)C2(C)C12CO2 (configuration not stated),T/C,"dose: 0.25 mg/kg/injection, schedule: Q07DX002 (ip), vehicle: saline",189 % of control
same,T/C,"dose: 5.0 mg/kg/injection, schedule: Q07DX002 (ip), vehicle: saline",98 % of control
same,T/C,"dose: 10.0 mg/kg/injection, schedule: Q07DX002 (ip), vehicle: saline",88 % of control
C[C@]12C=CC(=O)C=C1CC[C@@H]1[C@@H]2C(=O)C[C@@]2(C)[C@H]1CC[C@]2(O)C(=O)CO,T/C,[1],108 % of control
same,T/C,[2],115 % of control
same,T/C,"dose: 25.0 mg/kg/injection, schedule: Q07DX003 (ip), vehicle: Klucel (hydroxypropylcellulose) (HPC)",97 % of control
same,T/C,[3],93 % of control and 102 % of control
same,T/C,"dose: 50.0 mg/kg/injection, schedule: Q07DX003 (ip), vehicle: Klucel (hydroxypropylcellulose) (HPC)",100 % of control
same,T/C,[4],110 % of control
same,T/C,"dose: 100.0 mg/kg/injection, schedule: Q07DX003 (ip), vehicle: Klucel (hydroxypropylcellulose) (HPC)",76 % of control
same,T/C,[5],81 % of control and 101 % of control
same,T/C,"dose: 200.0 mg/kg/injection, schedule: Q07DX003 (ip), vehicle: Klucel (hydroxypropylcellulose) (HPC)",88 % of control
same,T/C,"dose: 400.0 mg/kg/injection, schedule: Q07DX003 (ip), vehicle: Klucel (hydroxypropylcellulose) (HPC)",45 % of control
same,T/C,"dose: 800.0 mg/kg/injection, schedule: Q07DX002 (ip), vehicle: Klucel (hydroxypropylcellulose) (HPC)",60 % of control
same,T/C,"dose: 1200.0 mg/kg/injection, schedule: Q07DX002 (ip), vehicle: Klucel (hydroxypropylcellulose) (HPC)",80 % of control
C=C(C)C(=NC(C)(C)C)Nc1ccccc1,T/C,[6],100 % of control
same,T/C,[7],101 % of control
same,T/C,"dose: 50.0 mg/kg/injection, schedule: Q07DX002 (ip), vehicle: saline with Tween-80",103 % of control
same,T/C,"dose: 200.0 mg/kg/injection, schedule: Q07DX002 (ip), vehicle: saline with Tween-80",108 % of control
same,T/C,"dose: 400.0 mg/kg/injection, schedule: Q07DX002 (ip), vehicle: saline with Tween-80",100 % of control
